From patent EP4273147A1, “SUBSTITUTED SPIROLACTAMS, SALTS THEREOF AND THEIR USE AS HERBICIDALLY ACTIVE SUBSTANCES” (Bayer Aktiengesellschaft, priority 2022, dated 2023)

Key:
[1] = test system: ECHCG; assay: Herbicidal pre-emergence action (Table A2); type: in vivo, Echinochloa crus-galli; settings: application rate 320 g/ha; visual grading after ca. 3 weeks
Method in brief: (§1)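 Sandy loam filled the pots; weed seeds went in as paired sowings of one grass-type and one broadleaf species, then were covered with soil.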

[2] = test system: MATIN; assay: Herbicidal pre-emergence action (Table A4); type: in vivo, Matricaria inodora; settings: visual grading after ca. 3 weeks
Method in brief: as §1

[3] = test system: DIGSA; assay: Herbicidal pre-emergence action, section C (Table C5); type: in vivo, Digitaria sanguinalis; settings: application rate 80 g/ha; visual grading after ca. 3 weeks
[4] = test system: SETVI; assay: Herbicidal pre-emergence action, section C (Table C10); type: in vivo, Setaria viridis; settings: application rate 80 g/ha; visual grading after ca. 3 weeks
[5] = test system: POAAN; assay: Herbicidal pre-emergence action (Table A7); type: in vivo, Poa annua; settings: application rate 320 g/ha; visual grading after ca. 3 weeks
Method in brief: as §1

[6] = test system: ZEAMX; assay: Post-emergence effects on crop plants (Table F1); type: in vivo, Zea mays; settings: crop plant ZEAMX
Description: (§2) 2 to 3 weeks after sowing, the test plants were sprayed in the single-leaf stage.

[7] = test system: ZEAMX; assay: Pre-emergence effects on crop plants (Table D1); type: in vivo, Zea mays; settings: crop plant; application rate 80 g/ha; visual grading after ca. 3 weeks
[8] = test system: TRZAS; assay: Pre-emergence effects on crop plants (Table D2); type: in vivo, Triticum aestivum; settings: crop plant; application rate 320 g/ha; visual grading after ca. 3 weeks
Description: (§4) Seeds of mono- and dicotyledonous weed plants and crop plants were sown, in plastic or organic planting pots, in sandy loam and covered with soil. The compounds according to the invention, formulated in the form of wettable powders (WP) or as emulsifiable concentrates (EC), were applied to the surface of the covering soil as aqueous suspension or emulsion, with the addition of 0.5% of an additive, at an application rate of 600 1 of water/ha (converted).
(§5) Following treatment, the pots were placed in a greenhouse and kept under optimum growth conditions for the test plants.

[9] = test system: STEME; assay: Herbicidal pre-emergence action (Table A6); type: in vivo, Stellaria media; settings: application rate 320 g/ha; visual grading after ca. 3 weeks
Method in brief: as §1

[10] = test system: TRZAS; assay: Post-emergence effects on crop plants (Table F2); type: in vivo, Triticum aestivum; settings: crop plant TRZAS
Description: as §2

[11] = test system: ORYZA; assay: Post-emergence effects on crop plants (Table F3); type: in vivo, Oryza sativa; settings: crop plant ORYZA
Description: as §2

[12] = test system: MATIN; assay: Herbicidal pre-emergence action, section C (Table C8); type: in vivo, Matricaria inodora; settings: application rate 320 g/ha; visual grading after ca. 3 weeks
[13] = test system: ECHCG; assay: Herbicidal post-emergence action, section E (Table E5); type: in vivo, Echinochloa crus-galli; settings: assessed visually after ca. 3 weeks
Description: as §2

[14] = test system: GLXMA; assay: Post-emergence effects on crop plants (Table F4); type: in vivo, Glycine max; settings: application rate 80 g/ha, crop plant GLXMA
Description: as §2

[15] = test system: BRSNW; assay: Post-emergence effects on crop plants (Table F5); type: in vivo, Brassica napus; settings: application rate 80 g/ha, crop plant BRSNW
Description: as §2

[16] = test system: VERPE; assay: Herbicidal post-emergence action, section E (Table E9); type: in vivo, Veronica persica; settings: application rate 320 g/ha; assessed visually after ca. 3 weeks
Description: as §2

[17] = test system: VERPE; assay: Herbicidal pre-emergence action, section C (Table C11); type: in vivo, Veronica persica; settings: visual grading after ca. 3 weeks
[18] = test system: VIOTR; assay: Herbicidal pre-emergence action, section C (Table C12); type: in vivo, Viola tricolor; settings: visual grading after ca. 3 weeks
[19] = test system: LOLRI; assay: Herbicidal pre-emergence action (Table A3); type: in vivo, Lolium rigidum; settings: application rate 320 g/ha; visual grading after ca. 3 weeks
Method in brief: as §1

[20] = test system: POLCO; assay: Herbicidal post-emergence action, section E (Table E7); type: in vivo, Polygonum convolvulus; settings: application rate 320 g/ha; assessed visually after ca. 3 weeks
Description: as §2

[21] = test system: ALOMY; assay: Herbicidal post-emergence action, section E (Table E2); type: in vivo, Alopecurus myosuroides; settings: application rate 320 g/ha; assessed visually after ca. 3 weeks
Description: as §2

[22] = test system: GLXMA; assay: Pre-emergence effects on crop plants (Table D4); type: in vivo, Glycine max; settings: crop plant, visual grading after ca. 3 weeks
[23] = test system: BRSNW; assay: Pre-emergence effects on crop plants (Table D5); type: in vivo, Brassica napus; settings: crop plant; application rate 320 g/ha; visual grading after ca. 3 weeks
Description: as §4, §5

[24] = test system: ECHCG; assay: Herbicidal pre-emergence action, section C (Table C6); type: in vivo, Echinochloa crus-galli; settings: application rate 80 g/ha; visual grading after ca. 3 weeks
[25] = test system: VIOTR; assay: Herbicidal post-emergence action, section E (Table E10); type: in vivo, Viola tricolor; settings: application rate 320 g/ha; assessed visually after ca. 3 weeks
Description: as §2

[26] = test system: SETVI; assay: Herbicidal pre-emergence action (Table A5); type: in vivo, Setaria viridis; settings: application rate 320 g/ha; visual grading after ca. 3 weeks
Method in brief: as §1

[27] = test system: ORYZA; assay: Pre-emergence effects on crop plants (Table D3); settings: crop plant; application rate 320 g/ha; visual grading after ca. 3 weeks
[28] = test system: ALOMY; assay: Herbicidal pre-emergence action, section C (Table C2); type: in vivo, Alopecurus myosuroides; settings: visual grading after ca. 3 weeks
[29] = test system: ABUTH; assay: Herbicidal pre-emergence action, section C (Table C1); type: in vivo, Abutilon theophrasti; settings: application rate 80 g/ha; visual grading after ca. 3 weeks
[30] = test system: SETVI; assay: Herbicidal post-emergence action, section E (Table E8); type: in vivo, Setaria viridis; settings: application rate 320 g/ha; assessed visually after ca. 3 weeks
Description: as §2

[31] = test system: SETVI; assay: Herbicidal post-emergence action (Table B8); type: in vivo, Setaria viridis; settings: application rate 320 g/ha
Method in brief: (§3)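 Visual rating of activity versus untreated plants about 3 weeks after treatment: 0% means no difference from controls, 100% means complete kill. Test weeds were raised from seed in sandy loam under controlled greenhouse conditions and sprayed at the one-leaf stage.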

[32] = test system: ALOMY; assay: Herbicidal post-emergence action (Table B2); type: in vivo, Alopecurus myosuroides; settings: application rate 320 g/ha; rated visually after about 3 weeks
Method in brief: as §3

[33] = test system: VERPE; assay: Herbicidal pre-emergence action (Table A11); type: in vivo, Veronica persica; settings: application rate 320 g/ha; visual grading after ca. 3 weeks
Method in brief: as §1

[34] = test system: ABUTH; assay: Herbicidal post-emergence action (Table B1); type: in vivo, Abutilon theophrasti; settings: application rate 320 g/ha; treated at one-leaf stage; rated visually after about 3 weeks vs untreated controls (100% = plants have died, 0% = like control plants)
Method in brief: as §3

[35] = test system: ABUTH; assay: Herbicidal pre-emergence action (Table A1); type: in vivo, Abutilon theophrasti; settings: application rate 320 g/ha; visual grading after ca. 3 weeks vs untreated controls (100% = plants have died off, 0% = as control plants)
Method in brief: as §1

[36] = test system: KCHSC; assay: Herbicidal pre-emergence action (Table A10); type: in vivo, Kochia scoparia; settings: application rate 1280 g/ha; visual grading after ca. 3 weeks
Method in brief: as §1

[37] = test system: ECHCG; assay: Herbicidal post-emergence action (Table B3); type: in vivo, Echinochloa crus-galli; settings: application rate 320 g/ha; rated visually after about 3 weeks
Method in brief: as §3

[38] = test system: MATIN; assay: Herbicidal post-emergence action (Table B6); type: in vivo, Matricaria inodora; settings: application rate 320 g/ha; rated visually after about 3 weeks
Method in brief: as §3

[39] = test system: POAAN; assay: Herbicidal post-emergence action (Table B7); type: in vivo, Poa annua; settings: application rate 320 g/ha
Method in brief: as §3

[40] = test system: LOLRI; assay: Herbicidal pre-emergence action, section C (Table C7); type: in vivo, Lolium rigidum; settings: application rate 320 g/ha; visual grading after ca. 3 weeks
[41] = test system: ALOMY; assay: Herbicidal pre-emergence action (Table A9); type: in vivo, Alopecurus myosuroides; settings: application rate 320 g/ha; visual grading after ca. 3 weeks
Method in brief: as §1

[42] = test system: LOLRI; assay: Herbicidal post-emergence action (Table B5); type: in vivo, Lolium rigidum; settings: application rate 320 g/ha; rated visually after about 3 weeks
Method in brief: as §3

[43] = test system: LOLRI; assay: Herbicidal post-emergence action, section E (Table E6); type: in vivo, Lolium rigidum; settings: application rate 320 g/ha; assessed visually after ca. 3 weeks
Description: as §2

[44] = test system: AMARE; assay: Herbicidal pre-emergence action (Table A8); type: in vivo, Amaranthus retroflexus; settings: application rate 1280 g/ha; visual grading after ca. 3 weeks vs untreated controls (100% = plants have died off, 0% = as control plants)
Method in brief: as §1

[45] = test system: DIGSA; assay: Herbicidal post-emergence action, section E (Table E4); type: in vivo, Digitaria sanguinalis; settings: application rate 320 g/ha; assessed visually after ca. 3 weeks
Description: as §2

[46] = test system: DIGSA; assay: Herbicidal post-emergence action (Table B12); type: in vivo, Digitaria sanguinalis; settings: application rate 320 g/ha
Method in brief: as §3

[47] = test system: DIGSA; assay: Herbicidal pre-emergence action (Table A12); type: in vivo, Digitaria sanguinalis; settings: application rate 320 g/ha; visual grading after ca. 3 weeks
Method in brief: as §1

[48] = test system: ABUTH; assay: Herbicidal post-emergence action, section E (Table E1); type: in vivo, Abutilon theophrasti; settings: application rate 320 g/ha; assessed visually after ca. 3 weeks
Description: as §2

[49] = test system: POLCO; assay: Herbicidal pre-emergence action, section C (Table C9); type: in vivo, Polygonum convolvulus; settings: application rate 320 g/ha; visual grading after ca. 3 weeks
[50] = test system: VERPE; assay: Herbicidal post-emergence action (Table B10); type: in vivo, Veronica persica; settings: application rate 320 g/ha
Method in brief: as §3

O=C1N(Cc2cc(F)ccc2F)CCCC12CCCN(Cc1cc(F)ccc1F)C2=O (racemic) [I-017]
pre-emergence activity against ECHCG [1]: 100% | pre-emergence activity against MATIN ([2]; application rate 1280 g/ha): 90% | pre-emergence activity against DIGSA [3]: 100% | pre-emergence activity against SETVI [4]: 90% | pre-emergence activity against POAAN [5]: 100% | post-emergence activity against ZEAMX ([6]; application rate 320 g/ha): 10% | pre-emergence activity against ZEAMX [7]: 10% | pre-emergence activity against TRZAS [8]: 10% | pre-emergence activity against STEME [9]: 90% | post-emergence activity against TRZAS ([10]; application rate 320 g/ha): 10% | post-emergence activity against ORYZA ([11]; application rate 320 g/ha): 0% | pre-emergence activity against MATIN [12]: 80% | post-emergence activity against ECHCG ([13]; application rate 320 g/ha): 80% | post-emergence activity against GLXMA [14]: 20% | post-emergence activity against BRSNW [15]: 0% | post-emergence activity against VERPE [16]: 80% | pre-emergence activity against VERPE ([17]; application rate 80 g/ha): 90% | pre-emergence activity against VIOTR ([18]; application rate 320 g/ha): 80% | pre-emergence activity against LOLRI [19]: 100% | post-emergence activity against POLCO [20]: 100% | post-emergence activity against ALOMY [21]: 80% | pre-emergence activity against GLXMA ([22]; application rate 320 g/ha): 20% | pre-emergence activity against BRSNW [23]: 20% | pre-emergence activity against ECHCG [24]: 100% | post-emergence activity against VIOTR [25]: 80% | pre-emergence activity against SETVI [26]: 100% | pre-emergence activity against ORYZA [27]: 20% | pre-emergence activity against ALOMY ([28]; application rate 320 g/ha): 90%

O=C1N(Cc2ccccc2F)CCCC12CCCN(Cc1ccccc1F)C2=O (single isomer, unassigned) [I-001]
pre-emergence activity against ECHCG [1]: 100% | pre-emergence activity against ABUTH [29]: 80% | post-emergence activity against SETVI [30]: 100% | pre-emergence activity against MATIN ([2]; application rate 320 g/ha): 90% | post-emergence activity against SETVI [31]: 90% | pre-emergence activity against DIGSA [3]: 100% | pre-emergence activity against SETVI [4]: 100% | post-emergence activity against ALOMY [32]: 90% | pre-emergence activity against POAAN [5]: 100% | post-emergence activity against ZEAMX ([6]; application rate 80 g/ha): 0% | pre-emergence activity against VERPE [33]: 90% | post-emergence activity against ABUTH [34]: 90% | pre-emergence activity against ABUTH [35]: 90% | pre-emergence activity against STEME [9]: 90% | pre-emergence activity against KCHSC [36]: 90% | post-emergence activity against ECHCG [37]: 100% | post-emergence activity against MATIN [38]: 90% | post-emergence activity against POAAN [39]: 90% | pre-emergence activity against LOLRI [40]: 100% | pre-emergence activity against ALOMY [41]: 90% | post-emergence activity against LOLRI [42]: 90% | post-emergence activity against TRZAS ([10]; application rate 80 g/ha): 0% | post-emergence activity against ORYZA ([11]; application rate 80 g/ha): 0% | pre-emergence activity against MATIN [12]: 100% | post-emergence activity against ECHCG ([13]; application rate 80 g/ha): 90% | post-emergence activity against LOLRI [43]: 90% | post-emergence activity against VERPE [16]: 90% | pre-emergence activity against VERPE ([17]; application rate 320 g/ha): 90% | pre-emergence activity against VIOTR ([18]; application rate 80 g/ha): 90% | pre-emergence activity against LOLRI [19]: 100% | pre-emergence activity against AMARE [44]: 90% | post-emergence activity against ALOMY [21]: 90% | post-emergence activity against DIGSA [45]: 80% | post-emergence activity against DIGSA [46]: 90% | pre-emergence activity against GLXMA ([22]; application rate 80 g/ha): 0% | pre-emergence activity against DIGSA [47]: 100% | post-emergence activity against ABUTH [48]: 80% | pre-emergence activity against ECHCG [24]: 100% | pre-emergence activity against POLCO [49]: 80% | post-emergence activity against VIOTR [25]: 80% | pre-emergence activity against SETVI [26]: 100% | post-emergence activity against VERPE [50]: 90% | pre-emergence activity against ALOMY ([28]; application rate 80 g/ha): 100%
